# Tested on: DRGs, motor neurons, and Schwann cells
# Assay: Alamar blue viability assay of PN cells cultured 72 hours with immunosuppressive drugs
# Details: 72 hours culture, max 1% DMSO
# Description: It is contemplated that delivery of immunosuppressive agents function within a favorable therapeutic window. PNs are comprised of three major nervous system cell types, motor neurons, sensory neurons, and Schwann cells. […] FIG. 1B illustrates data regarding the toxicity of tacrolimus to DRGs, motor neurons, and Schwann cells. FIG. 1C illustrates data regarding the toxicity of prednisolone to DRGs, motor neurons, and Schwann cells.
# Cells (DRGs, motor neurons, and Schwann cells) were cultured for 72 hours in various concentration of the immunosuppressive drugs and viability was evaluated using the Alamar blue viability assay. ISV's were diluted into media using a maximum of 1% dimethylsulfoxide (DMSO).
# Biological material from Sprague Dawley (GFP− and GFP+) and Lewis rats, without any pathological conditions, were utilized to determine the PN allograft methods and materials described herein. Lewis rats were obtained from Charles River Laboratories (Wilmington, Mass.) and Sprague Dawley rats were obtained from Rat Resource and Research Center (Columbia, Mo.). Alzet osmotic pumps (model 1004), commercially available from DURECT Corporation, Cupertino, Calif., were utilized for delivery of immunosuppressive agents to PN allografts.
compound,measurement,value
C[C@]12C=CC(=O)C=C1CC[C@@H]1[C@@H]2[C@@H](O)C[C@@]2(C)[C@H]1CC[C@]2(O)C(=O)CO [prednisolone],dose tolerated by the cells (up to),up to 200 μM

# Reference: patent publication US10682408B2, “Localized immunosuppression of allografts for peripheral nerve repair” (UNIVERSITY OF WYOMING, priority 2016, dated 2020)
